# Measurements taken from patent US10376502B2, “Alkylated imino sugars exhibiting glucosidase inhibition and their method of use” (Baruch S. Blumberg Institute, priority 2012, dated 2019).
# System: BVDV
# Assay: BVDV single cycle virus yield reduction assay with plaque titration
# Assay type: cell-based, BVDV (NADL strain)
# Conditions: Bovine viral diarrhea virus isolates and strains; MDBK cells, MOI 0.5, 22 hours post infection; compound 0.16 μM to 100 μM
# Experimental: Cells and viruses: BVDV free MDBK cells (CCL 22) were obtained from the American Type Culture Collection and propagated in DMEMIF12 essential medium supplemented with penicillin (500 U/ml), streptomycin (500 U/ml), and 10% heat inactivated horse serum (Invitrogen). Cells were maintained in a humidified incubator at 37° C. with 5% C02. BVDV (NADL strain). For infections, virus inoculum was added in complete medium and adsorbed for 1 hour at 37‘C’, the inoculum was then removed, the cells washed once with medium and fresh medium containing compounds added. Virus stocks were prepared by freeze thawing the infected cells and culture supernatant three times followed by centrifugation at 1,000 g for 5 min., Stock titers were determined, and stocks were aliquoted and stored at −80° C. WNV was obtained from a eDNA clone of a human 2002 isolate from Texas; virus obtained from BHK cells electroporated with the in vitro synthesized RNA from this eDNA clone was passaged in Vero cells before use in antiviral assays. Dengue virus (DV) serotype 2 was a New Guinea C virus that had been passaged 28 times in suckling mouse brain, twice in Vero cells, and once in C6/36 mosquito cells.
# BVDV antiviral and plaque assays: To evaluate antiviral activity against BVDV, a single cycle virus yield reduction assay was performed in the presence of from 0.16 μM to 100 μM through 5-fold dilution. Specifically, 2×10^5 MDBK cells/well were plated in 24 well plates. Twenty four hours later, the cells were infected with BVDV at multiplicity of infection (MOI) of 0.5 PFU/cell in 100 uL complete media. After adsorption for 1 hour at 37° C., the inoculum was removed, and cells were washed with media before media containing vehicle or from 0.16 μM to 100 μM through 5-fold dilution of test compound was added. At 22 hours post infection, both cells and media were collected and freeze-thawed three times before the virus was tittered. For BVDV virus, titer determination, 10^−2, 10^−3, 10^−4 dilutions of virus were inoculated onto MDBK cells as described previously. After absorption and washing the cells were overlaid with medium containing methylcellulose or soft agar and incubated at 37° C. for 3 days or until plaques were visible. Plaques were counted directly under the microscope or after staining with crystal violet in 70% methanol for 15 minutes.
Structure (SMILES),EC50,EC90
CC1CCCCC1N(CCCCCCN1C[C@H](O)[C@@H](O)[C@H](O)[C@H]1CO)C(=O)OC(C)(C)C (some centres unmarked) [Entry 1],0.4 µM,3.5 µM
CC1CCCCC1NCCCCCCN1C[C@H](O)[C@@H](O)[C@H](O)[C@H]1CO (some centres unmarked) [Entry 2],100 µM,–
CC(C)(C)C(=O)N(CCCCCCN1C[C@H](O)[C@@H](O)[C@H](O)[C@H]1CO)C1CCCCC1 [Entry 3],0.2 µM,13 µM
CC(=O)N(CCCCCCN1C[C@H](O)[C@@H](O)[C@H](O)[C@H]1CO)c1cc(F)ccc1F [Entry 4],5 µM,–
CC(=O)N(CCCCCCN1C[C@H](O)[C@@H](O)[C@H](O)[C@H]1CO)c1ccc(F)cc1F [Entry 5],6 µM,67 µM
CC(C)(C)C(=O)N(CCCCCCN1C[C@H](O)[C@@H](O)[C@H](O)[C@H]1CO)c1cc(F)ccc1F [Entry 6],0.4 µM,18 µM
CC(C)(C)C(=O)N(CCCCCCN1C[C@H](O)[C@@H](O)[C@H](O)[C@H]1CO)c1ccc(F)cc1F [Entry 7],0.25 µM,45 µM
CC(C)C(=O)N(CCCCCCN1C[C@H](O)[C@@H](O)[C@H](O)[C@H]1CO)C1CCCCC1 [Entry 8],0.45 µM,25 µM
CC(C)(C)CC(=O)N(CCCCCCN1C[C@H](O)[C@@H](O)[C@H](O)[C@H]1CO)C1CCCCC1 [Entry 9],0.18 µM,4 µM
CC(C)(C)C(=O)N(CCCCCCN1C[C@H](O)[C@@H](O)[C@H](O)[C@H]1CO)C1CC1 [Entry 10],3.75 µM,–
CC(C)(C)C(=O)N(CCCCCCN1C[C@H](O)[C@@H](O)[C@H](O)[C@H]1CO)C1CCC1 [Entry 11],0.8 µM,–
CC(C)(C)C(=O)N(CCCCCCN1C[C@H](O)[C@@H](O)[C@H](O)[C@H]1CO)C1CCCC1 [Entry 12],0.85 µM,32 µM
CC(C)(C)C(=O)N(CCCCCCN1C[C@H](O)[C@@H](O)[C@H](O)[C@H]1CO)C1CCCCCC1 [Entry 13],0.4 µM,9 µM
CC(C)(C)C(=O)N(CCCCCCN1[C@H](CO)[C@@H](O)[C@H](O)[C@H]1CO)C1CCCCC1 [Entry 14],21 µM,–
CC(C)(C)C(=O)Nc1cccc(CCCN2C[C@H](O)[C@@H](O)[C@H](O)[C@H]2CO)c1 [Entry 15],2.4 µM,–
CC(C)(C)C(=O)Nc1ccc(CCCN2C[C@H](O)[C@@H](O)[C@H](O)[C@H]2CO)cc1 [Entry 16],> 100 µM,–
CC(C)(C)S(=O)(=O)N(CCCCCCN1C[C@H](O)[C@@H](O)[C@H](O)[C@H]1CO)C1CCCCC1 [Entry 17],0.31 µM,50 µM
O=S(=O)(c1ccccc1)N(CCCCCCN1C[C@H](O)[C@@H](O)[C@H](O)[C@H]1CO)C1CCCCC1 [Entry 18],0.5 µM,18 µM
CC(C)(C)N[S+]([O-])N(CCCCCCN1C[C@H](O)[C@@H](O)[C@H](O)[C@H]1CO)C1CCCCC1 (some centres unmarked) [Entry 19],0.3 µM,25 µM
O=C(c1ccccc1)N(CCCCCCN1C[C@H](O)[C@@H](O)[C@H](O)[C@H]1CO)C1CCCCC1 [Entry 20],0.32 µM,11 µM

# System: their target viruses
# Assay: not given
# Conditions: against their target viruses; cited from earlier work
row,Structure (SMILES),concentrations to achieve EC50 values in tissue culture
1,CCCC(=O)O[C@H]1CN2CC[C@H](O)[C@@H]2[C@@H](O)[C@@H]1O [Cellgosovir],near millimolar
2,"CCCCN1C[C@H](O)[C@@H](O)[C@H](O)[C@H]1CO [NBDNJ, N-butyl-DNJ]",near millimolar
